In patent US20020076693A1, “Novel cell surface receptor for HIV retroviruses, therapeutic and diagnostic uses” (priority 1997, published 2002):
Entries after “also recorded” stand apart in the source; their conditions may differ.

Experiments:
cell-surface P95 = cell-surface P95 (Homo sapiens, UniProt P19338); experiment: Recovery of cell-surface P95 complexed to biotin-labeled 5[Kψ(CH2N)PR]-TASP, competition by unlabeled constructs; conditions: 50 μM unlabeled, 5 μM biotin-labeled 5[Kψ(CH2N)PR]-TASP
Chain of cell-surface P95 (P19338 whole entry): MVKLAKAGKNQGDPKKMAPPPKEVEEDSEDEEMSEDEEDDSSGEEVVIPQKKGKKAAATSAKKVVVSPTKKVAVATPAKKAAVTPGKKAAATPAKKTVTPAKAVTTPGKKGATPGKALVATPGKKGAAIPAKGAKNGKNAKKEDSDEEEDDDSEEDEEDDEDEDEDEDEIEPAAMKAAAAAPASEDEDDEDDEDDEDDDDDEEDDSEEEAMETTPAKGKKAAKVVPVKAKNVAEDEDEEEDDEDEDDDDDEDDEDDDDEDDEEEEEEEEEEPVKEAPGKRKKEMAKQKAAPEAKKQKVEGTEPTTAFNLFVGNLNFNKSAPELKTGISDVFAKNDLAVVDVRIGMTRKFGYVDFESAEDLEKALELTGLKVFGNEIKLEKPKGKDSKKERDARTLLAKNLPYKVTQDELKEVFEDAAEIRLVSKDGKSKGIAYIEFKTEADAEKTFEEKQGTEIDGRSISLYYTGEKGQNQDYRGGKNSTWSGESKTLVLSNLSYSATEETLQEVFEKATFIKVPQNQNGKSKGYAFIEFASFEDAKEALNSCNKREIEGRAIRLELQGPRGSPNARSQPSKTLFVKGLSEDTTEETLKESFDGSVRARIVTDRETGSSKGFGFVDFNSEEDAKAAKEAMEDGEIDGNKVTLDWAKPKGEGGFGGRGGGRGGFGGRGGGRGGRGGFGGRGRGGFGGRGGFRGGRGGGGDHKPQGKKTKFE
Experimental: Cells were then washed extensively before preparation of cell extracts. The complexes formed between the biotin-labeled TASP constructs and any cell-surface protein were then recovered by purification using avidin-agarose (“Materials and Methods”). […] Lane 1 “Extract” represents the ligand blot analysis of crude CEM cell extracts; material corresponding to 10^6 cells.
Cells were then washed in FACS buffer (2×15 ml) and nucleus-free cell extracts were prepared using buffer E (150 ml). Such extracts were first diluted in PBS containing 1 mM EDTA (600 μl) before the addition of 100 μl avidin-agarose (ImmunoPure Immobilized Avidin from Pierce Chemical Company, U.S.A.) to capture the biotin-labeled TASP complexed to its cell surface ligand(s). These suspensions were incubated at 4° C. for 2 hr, and the avidin-agarose bound proteins were washed batchwise with PBS containing 1 mM EDTA (5×5 ml). Finally, the avidin-agarose pellet was resuspended in 100 ml of 2-fold concentrated electrophoresis sample buffer and heated at 95° C. for 5 min.

[1] = tested on: cell surface component (CEM and C8166 clones); experiment: Competition for cell-surface binding of 8-MAP; parameters: species or system human; conditions: FACS competition
HIV-1 JRCSF = experiment: HIV entry into HeLa P4-C5 cells (β-galactosidase), HIV-1 JRCSF; assay type: cell-based; conditions: HeLa P4-C5, HIV-1 JRCSF; read-out: IC50, inhibition of HIV entry
SIVmac = SIVmac entry into HeLa cells (β-galactosidase); assay type: cell-based, SIV; conditions: β-galactosidase at 48 hours
HIV-1 Ada-M = HIV-1 Ada-M entry into HeLa P4-C5 cells (β-galactosidase); assay type: cell-based; conditions: HeLa P4-C5, β-galactosidase at 48 hours
Experimental: HeLa cells (P4-C5) were treated (incubation at 37° C., 30 min) with AZT (5 μM), (α-CD4 mAb CBT4 (5 μg/ml) before infection with the different HIV isolates in order to obtain the background β-galactosidase activity compared to untreated cells (Control). During the same time, the different HIV isolates were treated (incubation at room temperature, 15 min) with 1, 5, and 10 μg/ml of heparin before addition to untreated cells. The b-galactosidase activity was assayed at 48 hours post-infection as a measure of HIV entry (3 +L7).

CEM cells = experiment: FACS binding of labeled TASP constructs to the cell-surface ligand; parameters: species or system human; conditions: biotin-labeled constructs, dose for 50% labeling, read-out: Affinity to bind TASP-ligand (EC50), 50% effective dose
Text: (§1) The cells were then washed twice with FACS buffer and fixed in 1% formaldehyde in FACS buffer. […] The fluorescence intensity was monitored by FACS analysis using Lysis II Software in FIGS. 3/4 and Tables 1/2, or Cell Quest™ Software (Beckton Dickinson and Apple Computer) in FIG. 5 +L.

[2] = tested on: HIV-1 pseudotyped Mo-MLV virus; experiment: Infection of CEM cells by HIV-1 pseudotyped Mo-MLV virus (p24); conditions: p24 at 48 hours p.i., AZT 5 μM, TASP 5 μM
Experimental: CEM cells (2×10^5) were infected with the HIV-1 pseudoryped Mo-MLV virus (Experimental procedure) at 95 ng of p24/ml, in the absence (histogram Control) or presence of different additions (as indicated). The infection was monitored by the production of p24, which was measured in the culture supernatant at 48 hours p.i. The mean±SD of duplicate samples is given. Treatment of cells with the different antibodies was as in FIG. 6 +L. For a control of infection, cells were pretreated with 5 μM AZT before infection.
Hela cells were cotransfected by electroporation with plasmids pNL4-3 defective in env gene (Borman et al., 1995) and pE4070A expressing amphotrope envelope glycoproteins of Mo-MLV (Battini et al., 1996). Electroporation (Schwartz et al., 1996) was performed at 200 V, 960 μF, using a 4 mm wide cuvettes in a BIO-Rad Gene Pulser. The pseudotyped virus was recovered from the culture supernatant after 48 hours of culturing.

[3] = tested on: HIV-1 ELI, Ba-L, SF162, UGO29A, and Retrovir resistant isolate; experiment: Infection of PBMC by different HIV-1 isolates (p24 in culture medium); assay type: cell-based; conditions: p24 at 6 days post-infection, range over the isolates, read-out: IC50 values, virus production in PBMC
Text: Virus production was monitored by the concentration of p24 in the culture medium at 6 days post-infection (3 +L0). The HIV-1 isolates were:
Virus production was monitored by the concentration of p24 in the culture medium at 7 days post-infection.

[4] = Stability of TASP constructs in serum (residual activity to bind the cell-surface ligand); assay type: in vitro ADME
P95/nucleolin = P95/nucleolin (Homo sapiens, UniProt P19338); experiment: Saturation of binding sites of P95/nucleolin
Chain of P95/nucleolin (P19338 whole entry): as above

[5] = tested on: V3 loop-BPs (nucleolin, PHAP II, PHAP I); experiment: BIAcore biosensor binding to immobilized V3 loop-BPs; parameters: species or system human
HIV-1 Bal [6] = experiment: Infection of human monocyte-derived macrophages by HIV-1 (p24); assay type: cell-based; conditions: HIV-1 BaL (TASP also Ada); p24 in supernatant
Experimental: Macrophages are infected with BaL or Ada HIV-1 viruses, in the presence of 2 μM, 1 μM or 0.1 μM of 5[Kψ (CH2N)PR]-TASP. Cells are preincubated during 30 min at 4° C. in the presence of 5[Kψ (CH2N)PR]-TASP before adding the virus. Every 3 days interval, the whole culture supernatant is collected and is replaced by RPMI 1640 culture medium supplemented with 20% fetal calf serum (FCS), 1% antibiotics, 1% glutamine, in addition to 5[Kψ (CH2N)PR]-TASP that is kept present in the culture medium until day 14 after in vitro infection. Virus production is quantitated by titration of p24 protein in the culture supernatant at different times (days) after in vitro infection. Each value represented in the graphs represents the mean of two test samples.
Macrophages are infected by the BaL VIH-1 virus in the presence of 100 μg/ml of anti-P95, anti-P40 and anti-P30 antibody. Cells are preincubated during 30 min at 4° C. in the presence of each kind of antibody before adding the virus. The antibodies are kept present in the culture medium during the whole infection period of time. […]
Cells are preincubated during 30 min at 4° C. in the presence of the different molecules either alone or in association before adding the virus. […] Virus production is quantitated by titration of p24 protein in the culture supernatant at different times (days) after in vitro infection. […]

MOLT4 cells = experiment: FACS binding of FITC-labeled TASP after protease treatment of cells; parameters: species or system human
Experimental: as §1
Protease treatment of CEM and MOLT cells was essentially as described previously (Borrow et al., 1992) with slight modifications. Briefly, cells were washed in PBS and in RPMI-1640 medium containing 1 mM EDTA before treatment with trypsin (Sigma; 2.5 mg/ml at 20° C. for 5 min), proteinase K (Bohringer Mannhein GmbH, Germany; 0.2 mg/ml at 37° C. for 30 min), or pronase E (Sigma, 0.1 mg/ml at 37° C. for 45 min). The reactions were stopped by 10 fold dilutions in RPMI-1640 containing 10% fetal calf serum. Cells were then washed in PBS and in FACS buffer, and processed for FACS analysis.
The expression of CD4 and CD26 in control cells (not treated with different proteases) was considered as 100%. Consequently the % positive cells after protease treatment were estimated by comparison with the untreated cells.

HIV-1 Bal [7] = experiment: HIV entry into HeLa P4-C5 cells (β-galactosidase), HIV-1 Ba-L; assay type: cell-based; conditions: HeLa P4-C5, HIV-1 Bal; read-out: IC50, inhibition of HIV entry
[8] = binding protein(s) V3 loop-BPs, BIAcore

In the case of 5[Kψ(CH2N)PR]-TASP, the “isolation of cell-surface P95 abolished by excess unlabeled construct” value (cell-surface P95) is reported as “completely abolished”, the “concentration sufficient to block the binding of 10 μM of 8-MAP” value [1] is reported as 1 µM and the IC50 (HIV-1 JRCSF) is reported as 300 nM. The “effect on SIVmac entry” value (SIVmac) was “only a slight effect; also recorded: no significant effect”, the “effect on HIV-1 Ada-M entry” value (HIV-1 Ada-M) was “enhances” and the EC50 (CEM cells) was 150 nM. For the same substance, the “effect on infection by HIV-1 pseudotyped Mo-MLV virus” value [2] was “no significant effect”, the IC50 [3] was 50 to 500 nM and the “activity retained after 18 hours of incubation in serum” value [4] was “more than 80%”. The “inactivated after 18 hours of incubation in sera” value [4] was “less than 20%”, the “concentration for 100% saturation of the binding sites” value (P95/nucleolin) was 2 µM and the “Ka (equilibrium affinity constant)” value [5, 8] was 9.61e+09 M⁻¹. For the same substance, the “ka (association rate constant)” value [5, 8] was 37.50 × 10^5 M^−1S^−1, the “kd (dissociation rate constant)” value [5, 8] was 0.39 × 10^−3 S^−1 and the “equilibrium affinity constant Ka” value ([5]; binding to the V3 loop-BPs) was 9.6e+09 M⁻¹. For the same substance, the “effect on infection of human macrophages by HIV-1” value (HIV-1 Bal [6]) was “inhibits, in a dose-dependent manner”, the “Cell-surface expression (% positive cells), TASP-Ligand” value (MOLT4 cells; after Pronase E treatment) was 8% and the “Cell-surface expression (% positive cells), TASP-Ligand” value (MOLT4 cells; after Proteinase K treatment) was 15%. For the same substance, the “Cell-surface expression (% positive cells), TASP-Ligand” value (MOLT4 cells; after Trypsin treatment) was 92% and the IC50 (HIV-1 Bal [7]) was 300 nM.
